Our source for the melting point values is patent US7244738B2, “Arylamine-substituted quinazolinone compounds useful as alpha 1A/B adrenergic receptor antagonists” (Roche Palo Alto LLC, priority 2003, dated 2007).

Where a name gives a salt, the structure may show the parent alone.

`COc1cc2[nH]c(N(C)CCc3cccc(/N=C(\C)N(C)C)c3)nc(=O)c2cc1OC` [Example 91, N′-(3-{2-[(6,7-Dimethoxy-4-oxo-1,4-dihydro-quinazolin-2-yl)-methyl-amino]-ethyl}-phenyl)-N,N-dimethyl-acetamidine] returned a melting point of 135 to 138.1 °C.
The value for `CCN(C)Cc1cccc(CN(C)c2nc(=O)c3c(OC)c(OC)c(OC)cc3[nH]2)c1` [Example 114, 2-({3-[(Ethyl-methyl-amino)-methyl]-benzyl}-methyl-amino)-5,6,7-trimethoxy-1H-quinazolin-4-one] was 106.5 to 108.9 °C; that for `COc1cc2nc(N(C)Cc3cccc(/N=C(\C)N(C)C)c3)[nH]c(=O)c2c(C)c1OC` (as salt: salt) [Example G-1, N′-(3-{[(6,7-Dimethoxy-5-methyl-4-oxo-1,4-dihydro-quinazolin-2-yl)-methyl-amino]-methyl}-phenyl)-N,N-dimethyl-acetamidine] was 170.6 to 172.5 °C.
As for `COc1cc2[nH]c(N(C)Cc3ccc(CN(C)CCC(F)(F)F)cc3)nc(=O)c2c(OC)c1OC` [Example 1, 5,6,7-Trimethoxy-2-[methyl-(4-{[methyl-(3,3,3-trifluoro-propyl)-amino]-methyl}-benzyl)-amino]-1H-quinazolin-4-one], the melting point fell in the range of 97.8 to 101.9 °C.
The value for `COc1cc2[nH]c(N(C)Cc3cccc(C(C)N(C)S(C)(=O)=O)c3)nc(=O)c2c(C)c1OC` (centres unmarked) [Example 26, N-[1-(3-{[(6,7-Dimethoxy-5-methyl-4-oxo-1,4-dihydro-quinazolin-2-yl)-methyl-amino]-methyl}-phenyl)-ethyl]-N-methyl-methanesulfonamide] was 130 to 133.8 °C; that for `COc1cc2[nH]c(N(C)Cc3cccc(S(C)(=O)=O)c3)nc(=O)c2c(OC)c1OC` [Example 129, 2-[(3-Methanesulfonyl-benzyl)-methyl-amino]-5,6,7-trimethoxy-1H-quinazolin-4-one] was 231.5 to 232.9 °C.
The value for `COCCCN(C)c1cccc(CN(C)c2nc(=O)c3c(OC)c(OC)c(OC)cc3[nH]2)c1` (as salt: HCl) [Example 189, 5,6,7-Trimethoxy-2-({3-[(3-methoxy-propyl)-methyl-amino]-benzyl}-methyl-amino)-1H-quinazolin-4-one] was 166.7 to 168.1 °C.
The value for `COc1cc2[nH]c(N(C)Cc3cccc(N4CCN(C)C4=O)c3)nc(=O)c2c(OC)c1OC` [Example 263, 5,6,7-Trimethoxy-2-{methyl-[3-(3-methyl-2-oxo-imidazolidin-1-yl)-benzyl]-amino}-1H-quinaozlin-4-one] was 205.4 to 207.8 °C; that for `COc1cc2[nH]c(N(C)Cc3ccc(OCC(O)CO)cc3)nc(=O)c2c(C)c1OC` (centres unmarked) [Example 14, 2-{[4-(2,3-Dihydroxy-propoxy)-benzyl]-methyl-amino}-6,7-dimethoxy-5-methyl-1H-quinazolin-4-one] was 199.7 to 201.9 °C.
With `COc1cc2[nH]c(N(C)Cc3cccc(CN(C)C)c3)nc(=O)c2c(C)c1OC` [Example 56, 2-[(3-Dimethylaminomethyl-benzyl)-methyl-amino]-6,7-dimethoxy-5-methyl-1H-quinazolin-4-one], the melting point was 174.9 to 176 °C.
The compound `COc1cc2[nH]c(N(C)Cc3cccc(N4C(=O)CC(C)C4=O)c3)nc(=O)c2c(C)c1OC` (centres unmarked) [Example 65, 1-(3-{[(6,7-Dimethoxy-5-methyl-4-oxo-1,4-dihydro-quinazolin-2-yl)-methyl-amino]-methyl}-phenyl)-3-methyl-pyrrolidine-2,5-dione] displayed a melting point of 217.8 to 219.2 °C.
The compound `COc1cc2[nH]c(N(C)Cc3cccc(N4CCNC4=O)c3)nc(=O)c2c(C)c1OC` [Example 76, 6,7-Dimethoxy-5-methyl-2-{methyl-[3-(2-oxo-imidazolidin-1-yl)-benzyl]-amino}-1H-quinazolin-4-one] came in with a melting point of 265 to 266 °C.
The value for `CNCc1cccc(CN(C)c2nc3cc(OC)c(OC)c(C)c3c(=O)[nH]2)c1` [Example C-1, 6,7-Dimethoxy-5-methyl-2-[methyl-(3-methylaminomethyl-benzyl)-amino]-1H-quinazolin-4-one] was 179 to 181.3 °C; that for `COCCNS(=O)(=O)c1cccc(CN(C)c2nc(=O)c3c(C)c(OC)c(OC)cc3[nH]2)c1` [Example 131, 3-{[(6,7-Dimethoxy-5-methyl-4-oxo-1,4-dihydro-quinazolin-2-yl)-methyl-amino]-methyl}-N-(2-methoxy-ethyl)-benzenesulfonamide] was 163 to 164.9 °C; that for `COCCC(=Nc1cccc(CN(C)c2nc(=O)c3c(OC)c(OC)c(OC)cc3[nH]2)c1)N(C)C` [Example G-36, 3-Methoxy-N,N-dimethyl-N′-(3-{[methyl-(5,6,7-trimethoxy-4-oxo-1,4-dihydro-quinazolin-2-yl)-amino]-methyl}-phenyl)-propionamidine] was 145 °C.
The value for `COc1cc2[nH]c(N(C)Cc3cccc(C#N)c3)nc(=O)c2c(C)c1OC` (as salt: TFA) [Example 96, 3-{[(6,7-Dimethoxy-5-methyl-4-oxo-1,4-dihydro-quinazolin-2-yl)-methyl-amino]-methyl}-benzonitrile] was 279.9 to 281.5 °C; that for `COc1cc2[nH]c(N(C)Cc3cccc(Oc4ncccn4)c3)nc(=O)c2c(OC)c1OC` [Example F-16, 5,6,7-Trimethoxy-2-{methyl-[3-(pyrimidin-2-yloxy)-benzyl]-amino}-1H-quinazolin-4-one] was 191 to 192.9 °C.
Compound `COc1cc2[nH]c(N(C)Cc3cccc(CN4CCOCC4)c3)nc(=O)c2c(OC)c1OC` [Example 110, 5,6,7-Trimethoxy-2-[methyl-(3-morpholin-4-ylmethyl-benzyl)-amino]-1H-quinazolin-4-one] had a melting point of 160 to 162.1 °C.
The value for `COc1cc2[nH]c(N(C)Cc3ccc(OCCCN(C)C)cc3)nc(=O)c2c(OC)c1OC` [Example 48, 2-{[4-(3-Dimethylamino-propoxy)-benzyl]-methyl-amino}-5,6,7-trimethoxy-1H-quinazolin-4-one] was 108 to 111 °C; that for `C/N=C(/C)N(C)c1cccc(CN(C)c2nc(=O)c3c(C)c(OC)c(OC)cc3[nH]2)c1` [Example 194] was 181.2 to 186.6 °C; that for `COc1cc2[nH]c(N(C)Cc3cccc(N4CCOC4=O)c3)nc(=O)c2c(OC)c1OC` [Example 255, 5,6,7-ZTrimethoxy-2-{methyl[3-(2-oxo-oxazolidin-3-yl)-benzyl]-amino}-1H-quinazolin-4-one] was 226 to 229.5 °C.
The value for `COc1cc2nc(N(C)Cc3cccc(N4CCCC4=O)c3)[nH]c(=O)c2c(OC)c1OC` [Example H-1, 5,6,7-Trimethoxy-2-{methyl-[3-(2-oxo-pyrrolidin-1-yl)-benzyl]-amino}-1H-quinazolin-4-one] was 165.5 to 166.5 °C; that for `COc1cc2[nH]c(N(C)Cc3cccc(NCCO)c3)nc(=O)c2c(OC)c1OC` [Example G-16, 2-{[3-(2-Hydroxy-ethylamino)-benzyl]-methyl-amino}-5,6,7-trimethoxy-1H-quinazolin-4-one] was 60.5 to 61.4 °C.
